Test results reported in patent US9623021B2, “Nuclear receptor binding agents” (GTX, Inc., priority 2007, dated 2017).
Entries after “also recorded” stand apart in the source; their conditions may differ. Read-outs that look alike come from different tables or passages of the source.

How the values were obtained:
[1] = target: ERβ ligand binding domain (Homo sapiens (Human), UniProt Q92731); assay: Competitive [3H]-estradiol radioligand binding, ERβ (Example 21); conditions: for Ki Ratio (ER-α/ER-β): ratio between the binding constants of ER-α and ER-β
Procedure: (§1) ER binding affinity was determined via one of the following methods:
(§2) Briefly, the incubation mixture was filtered through a high affinity protein binding filter, and washed several times to remove any unbound radioactivity. The filter plate was air dried and sealed on the bottom.
(§3) Following incubation, plates were harvested onto GF/B filters and radioactivity was measured with a TopCount NXT (PerkinElmer). Nonspecific binding was subtracted from total binding to yield specific binding.

ER-β = ER-β (Rattus norvegicus (Rat), UniProt Q62986); assay: ER-β transactivation, ERE-LUC reporter in COS or 293 cells (Example 21B); format: cell-based
ER-α = ER-α (Rattus norvegicus (Rat), UniProt P06211); format: cell-based; conditions: for Estradiol activity at 100 nM, ER-α: 100 nM NRBA compared to 1 nM estradiol
Procedure: COS or 293 cells were plated in DME without phenol red+10% cs FBS at 90,000 cells per well in 24 well plates, and were transfected with 0.25 μg of the vector “ERE-LUC”, where a firefly luciferase gene was driven by two estrogen responsive elements and 0.02 μg of the control CMV-LUC, Renilla where a luciferase gene was driven by a CMV promoter. […] All the receptors were cloned from rat tissue into the PCR3.1 vector backbone. Twenty four hours post transfection, cells were treated with compounds of this invention, estrogen, DHT, and other NRBAs or combinations thereof. Cells were harvested 48 hrs after transfection, and assayed for firefly and Renilla luciferase activity.

[2] = target: ERα ligand binding domain (Homo sapiens (Human), UniProt P03372); assay: Competitive [3H]-estradiol radioligand binding, ERα (Example 21)
Procedure: as §1, §2, §3

ARPE-19 cells = assay: Fluorescent detection of intracellular ROS in ARPE-19 cells (tBH oxidative stress); conditions: 150 μM tBH, FIG. 20B
uterus = assay: Uterotropic assay; conditions: 50 μg/kg/day s.c., 3 days
Procedure: Statistical differences among groups were evaluated by one-way ANOVA. Rats were treated for 3 consecutive days and then sacrificed 24 h after the last dose. The body of the uterus was cut just above its junction with the cervix and at the junction of the uterine horns with the ovaries. The uterus was weighed with and without intrauterine fluid. Statistical comparisons were made between the weights of empty uteri.

SHP promoter = assay: SHP promoter-luciferase in HEK-293 cells transfected with FXR and ER-β; format: cell-based; conditions: FXR and ER-β plasmids, FIG. 12E right panel
Procedure: FIG. 12 depict the effect of ER-β ligand on PPAR-γ function through ligand binding domain (LBD). (A). HEK-293 cells were transfected with 0.25 μg PPRE-LUC, 5 ng CMV-renilla LUC and the indicated receptors (PPAR-γ and ER-β for the left panel and PPAR-α and ER-β for the right panel). The cells were treated 24 hrs after transfection with the indicated ligands and harvested 48 hrs after transfection and firefly luciferase activity was measured and normalized to renilla luciferase. (B). H475 in ER-β LBD is important for its function. H475 in ER-β LBD was mutated to alanine (A) using a site directed mutagenesis kit. Transactivation assay was performed as described in panel A in HEK-293 cells with a titration of ER-β ligands in wild type or ER-β H475A. (C). […] HEK-293 cells were transfected with 0.25 μg PPRE-LUC, 5 ng CMV-renilla LUC and 50 ng of the indicated receptors (PPAR-γ or PPAR-γ and wild type ER-β or PPAR-γ and ER-β H475A). The cells were treated 24 hrs after transfection with the indicated ligands and harvested 48 hrs after transfection and firefly luciferase activity was measured and normalized to renilla luciferase. (D). […] HepG2 cells were transfected with 0.25 μg PPRE-LUC, 5 ng CMV-renilla LUC, 0.5 μg PGC-1 or vector backbone and 100 ng of the indicated receptors (PPAR-γ or PPAR-γ and wild type ER-β or PPAR-γ and ER-β H475A for top panels and PPAR-α or PPAR-α and ER-β for bottom panel). The cells were treated 24 hrs after transfection with the indicated ligands and harvested 48 hrs after transfection and firefly luciferase activity was measured and normalized to renilla luciferase. (E). SHP-1 is an ER-β specific target gene. HEK-293 cells were transfected with 0.25 μg SHP-LUC, 5 ng CMV-renilla LUC and 50 ng of the indicated receptors (FXR and ER-α for the left panel and FXR and ER-β for the right panel). The cells were treated 24 hrs after transfection with the indicated ligands and harvested 48 hrs after transfection and firefly luciferase activity was measured and normalized to renilla luciferase. […]

Sequence of ER-β (Q62986 whole entry): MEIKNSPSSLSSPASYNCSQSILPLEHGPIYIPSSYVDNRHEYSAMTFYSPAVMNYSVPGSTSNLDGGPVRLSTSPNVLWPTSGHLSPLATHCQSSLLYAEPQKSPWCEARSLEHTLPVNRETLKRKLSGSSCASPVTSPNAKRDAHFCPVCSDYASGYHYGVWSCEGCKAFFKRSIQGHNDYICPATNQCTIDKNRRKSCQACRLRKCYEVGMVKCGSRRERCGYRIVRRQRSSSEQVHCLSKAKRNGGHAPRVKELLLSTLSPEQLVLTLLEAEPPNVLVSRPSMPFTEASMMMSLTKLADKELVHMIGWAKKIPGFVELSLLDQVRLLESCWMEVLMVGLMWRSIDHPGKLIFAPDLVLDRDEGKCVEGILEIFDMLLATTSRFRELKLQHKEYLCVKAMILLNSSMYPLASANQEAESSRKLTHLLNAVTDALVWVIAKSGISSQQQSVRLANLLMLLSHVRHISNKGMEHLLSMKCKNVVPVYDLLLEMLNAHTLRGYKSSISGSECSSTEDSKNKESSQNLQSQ
Sequence of ERβ ligand binding domain (Q92731 264-498, species assumed): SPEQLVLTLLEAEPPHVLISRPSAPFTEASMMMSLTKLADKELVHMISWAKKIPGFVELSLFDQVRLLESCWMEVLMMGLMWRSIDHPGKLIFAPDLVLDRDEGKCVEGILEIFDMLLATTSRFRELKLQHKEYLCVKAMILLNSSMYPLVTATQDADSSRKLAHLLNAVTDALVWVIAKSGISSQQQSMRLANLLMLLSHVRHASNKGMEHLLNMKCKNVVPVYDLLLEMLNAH
Sequence of ERα ligand binding domain (P03372 whole entry, looked up, species assumed, the tested form may be a part): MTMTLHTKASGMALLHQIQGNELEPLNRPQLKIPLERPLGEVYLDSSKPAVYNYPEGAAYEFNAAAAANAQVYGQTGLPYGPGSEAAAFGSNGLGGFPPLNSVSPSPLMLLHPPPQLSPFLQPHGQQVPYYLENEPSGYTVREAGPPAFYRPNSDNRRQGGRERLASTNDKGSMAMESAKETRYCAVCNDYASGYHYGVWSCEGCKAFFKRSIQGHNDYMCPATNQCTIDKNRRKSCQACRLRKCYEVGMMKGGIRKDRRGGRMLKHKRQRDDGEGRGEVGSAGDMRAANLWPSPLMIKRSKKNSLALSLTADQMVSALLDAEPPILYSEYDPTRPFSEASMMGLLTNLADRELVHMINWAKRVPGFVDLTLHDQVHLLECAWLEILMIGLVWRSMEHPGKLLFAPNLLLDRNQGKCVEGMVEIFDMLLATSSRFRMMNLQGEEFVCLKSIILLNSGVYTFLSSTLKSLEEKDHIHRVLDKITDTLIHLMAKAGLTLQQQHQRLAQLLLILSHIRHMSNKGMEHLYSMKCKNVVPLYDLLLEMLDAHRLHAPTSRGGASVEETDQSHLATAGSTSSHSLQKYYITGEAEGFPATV

O=c1c2ccc(O)cc2c(Cl)cn1-c1ccc(O)cc1 [Compound 12f, 4-chloro-6-hydroxy-2-(4-hydroxyphenyl)-isoquinolin-1(2H)-one]
Ki Ratio (ER-α/ER-β) [1]: 61

O=c1c2ccc(O)cc2c(I)cn1-c1ccc(O)cc1 [Compound 12h, 6-hydroxy-2-(4-hydroxyphenyl)-4-iodoisoquinolin-1(2H)-one]
Ki Ratio (ER-α/ER-β) [1]: 22

O=c1c2c(O)cc(O)cc2ccn1-c1ccc(O)cc1 [Compound 12l, 6,8-dihydroxy-2-(4-hydroxyphenyl)-isoquinolin-1(2H)-one]
ER-β RLU/RenRLU (ER-β; dose 0.1 nM): 0.06 RLU/RenRLU
ER-β RLU/RenRLU (ER-β; dose 1 nM): 0.07 RLU/RenRLU
ER-β RLU/RenRLU (ER-β; dose 10 nM): 0.16 RLU/RenRLU
ER-β RLU/RenRLU (ER-β; dose 100 nM): 0.46 RLU/RenRLU
ER-β RLU/RenRLU (ER-β; dose 1000 nM): 0.55 RLU/RenRLU
ER-α RLU/RenRLU (ER-α; dose 0.1 nM): 0.07 RLU/RenRLU
ER-α RLU/RenRLU (ER-α; dose 1 nM): 0.07 RLU/RenRLU
ER-α RLU/RenRLU (ER-α; dose 10 nM): 0.07 RLU/RenRLU
ER-α RLU/RenRLU (ER-α; dose 100 nM): 0.12 RLU/RenRLU
ER-α RLU/RenRLU (ER-α; dose 1000 nM): 0.24 RLU/RenRLU

Oc1ccc(-n2ccc3cc(O)cc(O)c3c2=S)cc1 [Compound 12p, 2-(4-hydroxyphenyl)-6,8-dihydroxy-isoquinoline-1(2H)-thione]
Ki [1]: 17 nM
Ki Ratio (ER-α/ER-β) [1]: 8
Estradiol activity at 100 nM, ER-α (ER-α): 45%

COc1cc(O)c2c(=O)n(-c3ccc(O)cc3)ccc2c1C#N [Compound 12q, 8-hydroxy-2-(4-hydroxyphenyl)-6-methoxy-1-oxo-1,2-dihydroisoquinoline-5-carbonitrile]
Estradiol activity at 100 nM, ER-α (ER-α): 25%

O=c1c2c(O)cc(O)cc2ccn1-c1ccc(O)c(F)c1 [Compound 12s, 2-(3-fluoro-4-hydroxyphenyl)-6,8-dihydroxyisoquinolin-1(2H)-one]
Ki Ratio (ER-α/ER-β) [1]: 25
Estradiol activity at 100 nM, ER-α (ER-α): 29%

COc1cc(O)c2c(=O)n(-c3ccc(O)cc3)cc(Br)c2c1 [Compound 12v, 4-bromo-8-hydroxy-2-(4-hydroxyphenyl)-6-methoxyisoquinolin-1(2H)-one]
Estradiol activity at 100 nM, ER-α (ER-α): 17%

O=c1c2c(O)cc(O)cc2c(Br)cn1-c1ccc(O)c(F)c1 [Compound 12z, 4-bromo-6,8-dihydroxy-2-(3-fluoro-4-hydroxyphenyl)isoquinolin-1(2H)-one]
Ki [2]: 40 nM
prevention of ROS formation / oxidative damage (ARPE-19 cells): able to prevent ROS formation as well as estradiol; also recorded: protected ARPE-19 cells from oxidative damage
Ki Ratio (ER-α/ER-β) [1]: 12

C=Cc1cn(-c2ccc(O)cc2)c(=O)c2c(O)cc(O)cc12 [Compound 14l, 6,8-dihydroxy-2-(4-hydroxyphenyl)-4-vinylisoquinolin-1(2H)-one]
Ki [2]: 76 nM
prevention of ROS formation / oxidative damage (ARPE-19 cells): protected ARPE-19 cells from oxidative damage
Ki [1]: 6 nM
Estradiol activity at 100 nM, ER-α (ER-α): 50%

COc1ccc(-c2cn(-c3ccc(O)cc3)c(=O)c3ccc(O)cc23)cc1 [Compound 15b, 6-hydroxy-2-(4-hydroxyphenyl)-4-(4-methoxyphenyl)isoquinolin-1(2H)-one]
Ki Ratio (ER-α/ER-β) [1]: 8.3

C[C@]12CC[C@@H]3c4ccc(O)cc4CC[C@H]3[C@@H]1CC[C@@H]2O [Estradiol]
uterine growth / uterine weight (uterus): stimulated the proliferation of uterus significantly

CC(C)c1onc(-c2c(Cl)cccc2Cl)c1COc1ccc(/C=C/c2cccc(C(=O)O)c2)c(Cl)c1 [GW4064, reference compound]
SHP activity (SHP promoter): increased its activity significantly
